This is an account of results in patent US5180711A, “Combined treatment with GnRH antagonist and GnRH to control gonadotropin levels in mammals” (Applied Research Systems ARS Holding N.V., priority 1990, dated 1993).

Where a SMILES comes first, the peptide text is derived from it. [ ]: non-standard residue; d: D form. The star is where a group is joined. dPhe(4-Cl) = N[C@H](Cc1ccc(Cl)cc1)C(=O)O; d2Nal = N[C@H](Cc1ccc2ccccc2c1)C(=O)O; Lys(iPr) = CC(C)NCCCC[C@H](N)C(=O)O; d3Pal = N[C@H](Cc1cccnc1)C(=O)O; Nicotinoyl = O=C(c1cccnc1)*

Data set [1] can be described thus: Antide concentrations in daily blood samples (Example 2). It counts as in vivo, cynomolgus monkeys. The settings on record: regimen A: four daily injections of 10 mg/kg sc; test period >40 days. Here is the method: (§1) Normally cycling cynomolgus monkeys were studied in one of two regimens. Regimen A comprised a series of initial large loading doses of Antide (10 mg/kg, sc), with no further Antide administration. […] In each regimen GnRH replacement was initiated 4 days after the first Antide injection at a rate of 5 μg/pulse, with one 1 min pulse/hour. The amplitude was subsequently raised to 10 μg/pulse after approximately 21 days. Daily blood samples were drawn for later determination of estradiol, progesterone and Antide concentrations.

The subject of data set [2] is ovulation; estradiol and progesterone concentrations. Kind of data set: Ovulation induction by pulsatile GnRH replacement during Antide suppression of endogenous cycles (Example 2). It counts as in vivo, cynomolgus monkeys. Here is the method: A second experiment was performed to establish that pulsatile GnRH replacement therapy would induce ovulation in the face of antagonist-induced suppression of endogenous cycles.
as §1

Data set [3] relates to tonic gonadotropin (FSH/LH) levels. The settings on record: ovariectomized monkeys treated with Antide; cited from earlier work.
Data set [4] concerns endogenous gonadotropin secretion (LH, FSH). Kind of data set: Inhibition of endogenous gonadotropin secretion by Antide and response to pulsatile GnRH replacement in ovariectomized monkeys (Example 1). It counts as in vivo, cynomolgus monkeys. As to conditions: Antide-suppressed monkeys; GnRH 5 μg/pulse, 1 pulse/hour, from day 17; day after initiation. Here is the method:
Three long-term ovariectomized cynomolgus monkeys fitted with indwelling jugular vein canulae were utilized for this study. Daily blood samples were drawn under ketamine-induced anesthesia (10 mg/kg, I.M.), for 90 days. On study days 11-16 Antide (3 mg/kg, in propylene/glycol:water, 1:1) was administered via subcutaneous injection. GnRH replacement therapy (5 μg/pulse, 1 pulse/hour given over 1 min, via a Pulsamat infusion pump) was initiated on day 17 and continued for one week then withheld for one week, then reinitiated for one week in a 7 day on, 7 day off regimen for a total of four exposures.

Regarding `CC(=O)N[C@H](Cc1ccc2ccccc2c1)C(=O)N[C@H](Cc1ccc(Cl)cc1)C(=O)N[C@H](Cc1cccnc1)C(=O)N[C@@H](CO)C(=O)N[C@@H](CCCCNC(=O)c1cccnc1)C(=O)N[C@H](CCCCNC(=O)c1cccnc1)C(=O)N[C@@H](CC(C)C)C(=O)N[C@@H](CCCCNC(C)C)C(=O)N1CCC[C@H]1C(=O)N[C@H](C)C(N)=O` [Antide, N--Ac--D--2--Nal--D--pClPhe--D--3---Pal--Ser--NicLys--D--NicLys--Leu--ILys--Pro--D--Ala--NH2] (Ac-[d2Nal][dPhe(4-Cl)][d3Pal]SK(Nicotinoyl)[dK](Nicotinoyl)L[Lys(iPr)]P[dA]-NH2), in data set [1], the “concentration of Antide, always remaining above, throughout test period” value is listed as “above 15 ng/ml”.
With “gonadotropin releasing hormone (QHWSYGLRPG; Gonadoliberin-1; UniProt P01148 24-33, looked up) [GnRH]”, the “E2 response, ovulation and luteal P4” value in data set [2] (regimen A, GnRH restarted at 10 μg/pulse) is “rapid and sustained elevation of E2 concentrations culminating in ovulation and normal luteal phase P4 (progesterone) concentrations”; in data set [2] (regimen B, GnRH increased to 10 μg/pulse) it was “rapid rise in E2 concentrations to normal preovulatory levels culminating in ovulation with subsequent normal luteal P4 production”. The “E2 response to initial pulsatile GnRH replacement” value in data set [2] (regimen B, GnRH 5 μg/pulse) is given as “elevations of E2 to those characteristic of the late follicular phase”. The “gonadotropin response to a large i.v. bolus of GnRH” value in data set [3] is listed as “transient increase in gonadotropin levels which subsequently fell back to the inhibited state”. In data set [4], the “gonadotropin concentrations during GnRH replacement therapy” value is “greater than 100 ng/ml”.
